pIC50: −log10 of the molar value. Where two headings read alike, the source gives them in different places.
Experiments:
[1] = Rat pharmacokinetic evaluation experiment; type: in vivo; details: plasma, male SD rats; for AUC: read-out: AUC (exposure)
Source text: To determine the drug concentrations in plasma at different times after intravenous and intragastric administration of the test compounds to the rats by using the LC/MS/MS method and using male SD rats as the test animals; To study the pharmacokinetic behaviors of the test compounds in rats and to evaluate the pharmacokinetic characteristics thereof.
Experiment scheme: 10 healthy adult male SD rats were used as experimental animals and divided into 4 groups according to the principle of similar body weight, with 2 in each group of the group IV (two groups) and 3 in each group of the group PO (two groups). The animals were purchased from Beijing Vital River Laboratory Animal Technology Co., Ltd.
Group IV: an appropriate amount of samples were weighed; an appropriate amount of DMSO, PEG400 and water were added successively thereto according to the volume ratio of 10:60:30; and stirring was performed under sonication to reach a clear state of 1.5 mg/mL.
Group PO: an appropriate amount of samples were weighed; an appropriate amount of DMSO, PEG400 and water were added successively thereto according to the volume ratio of 10:60:30; and stirring was performed under sonication to reach a clear state of 1.0 mg/mL.
After fasting overnight, each rat in the group IV was administered intravenously with a volume of 2 mL/kg and a dose of 3 mg/kg; each rat in the group PO was administered intragastrically with a volume of 10 mL/kg and a dose of 10 mg/kg.
After each of the male SD rats in the group IV was administrated with the test compounds, 200 ul of blood samples were collected at 0.0833, 0.25, 0.5, 1, 2, 4, 6, 8 and 24 hours, and were placed in a commercial anticoagulation tube pre-loaded with EDTA-K2. After each rat in the group PO was administrated with the test compounds, 200 ul of blood samples were collected at 0.25, 0.5, 1, 2, 4, 6, 8 and 24 hours respectively, and were placed in a commercial anticoagulation tube pre-loaded with EDTA-K2. The test tube was centrifuged for 15 minutes to separate the plasma and stored at −60° C. 2 hours after administration, the animals can be fed. The content of the test compounds in plasma was determined by the LC/MS/MS method after intravenous and intragastric administration to the rats. The linear range of the method was from 2.00 to 6000 nM; plasma samples were analyzed after treatment of precipitating proteins by acetonitrile.
Note: Cl: clearance rate; Vd: volume of distribution; AUC: exposure; T1/2: half-life; Cmax: maximum compound concentration after oral administration; Tmax: time to reach Cmax; F: bioavailability.

[2] = system: human non-small cell lung cancer NCI-H358; test: In vivo drug efficacy test (2): subcutaneous xenograft tumor model; design: species or system BALB/c nude mice; details: 100 mg/kg (0-6 days) + 50 mg/kg (7-20 days)
Procedure: (§1) To evaluate the in vivo efficacy of the test compounds in a subcutaneous xenograft tumor model of human non-small cell lung cancer NCI-H358.
BALB/c nude mice, female, 6-8 weeks old, weighing 18-21 grams. A total of 100 were required. They were provided by Shanghai Lingchang Experimental Animal Co., Ltd ( ? ? ). NCI-H358 tumor cells were resuspended in PBS to prepare 0.1 mL (5×10^6) of cell suspension, which was inoculated subcutaneously on the right back of each mouse (5×10^6/mouse) to wait for tumor growth. When the average tumor volume reached about 150-200 mm^3, randomized grouping and administration were performed, and the administration dose was shown in Table 6. The diameter of the tumor was measured with vernier calipers twice a week. The formula for calculating the tumor volume is: V=0.5a×b^2, wherein a and b represent the long and short diameters of the tumor, respectively. The tumor suppressive effect of the compounds was evaluated by TGI (%). TGI (%) reflects the tumor growth inhibition rate. Calculation of TGI (%): TGI (%)=[(1−(average tumor volume at the end of administration in a treatment group−average tumor volume at the beginning of administration in the treatment group))/(average tumor volume at the end of treatment in the solvent control group−average tumor volume at the beginning of treatment in the solvent control group)]×100%.

[3] = system: human pancreatic cancer x-MIA-PaCa2 cell; test: In vivo drug efficacy test (3): subcutaneous xenograft tumor model; design: species or system NU/NU mice; details: 50 mg/kg
Procedure: To evaluate the in vivo efficacy of the test compounds in a subcutaneous xenograft tumor model of human pancreatic cancer x-MIA-PaCa2 cell.
NU/NU mice, female, 6-8 weeks old, weighing 17-20 grams. A total of 100 were required (additional 30% of animals were inoculated). They were provided by Beijing Vital River Science and Technology Co., Ltd. Each mouse was subcutaneously inoculated with 0.2 mL (10×10^6) of x-MIA-PaCa2 cells (plus matrigel, with the volume ratio being 1:1) on the right back. When the average tumor volume reached about 150 mm^3, grouping and administration were performed, and the administration dose was shown in Table 7. The diameter of the tumor was measured with vernier calipers twice a week. The formula for calculating the tumor volume is: V=0.5a×b^2, wherein a and b represent the long and short diameters of the tumor, respectively. The tumor suppressive effect of the compounds was evaluated by TGI (%). TGI (%) reflects the tumor growth inhibition rate. Calculation of TGI (%): TGI (%)=[(1−(average tumor volume at the end of administration in a treatment group−average tumor volume at the beginning of administration in the treatment group))/(average tumor volume at the end of treatment in the solvent control group−average tumor volume at the beginning of treatment in the solvent control group)]×100%.

[4] = system: human non-small cell lung cancer NCI-H358; test: In vivo drug efficacy test (4): subcutaneous xenograft tumor model; design: species or system BALB/c nude mice; details: 15 mg/kg
Procedure: as §1
BALB/c nude mice, female, 6-8 weeks old, weighing 18-20 grams. A total of 40 were required. They were provided by Shanghai Lingchang Experimental Animal Co., Ltd ( ? ? ). NCI-H358 tumor cells were resuspended in PBS to prepare a cell suspension with a density of 5×10^7/mL, which was inoculated subcutaneously on the right back of each mouse (0.1 mL, 5×10^6/mouse) to wait for tumor growth. When the average tumor volume reached about 166 mm^3, randomized grouping and administration were performed, and the administration dose was shown in Table 8. The diameter of the tumor was measured with vernier calipers twice a week.
The formula for calculating the tumor volume is: V=0.5a×b^2, wherein a and b represent the long and short diameters of the tumor, respectively. The tumor suppressive effect of the compounds was evaluated by TGI (%). TGI (%) reflects the tumor growth inhibition rate. Calculation of TGI (%): TGI (%)=[(1−(average tumor volume at the end of administration in a treatment group−average tumor volume at the beginning of administration in the treatment group))/(average tumor volume at the end of treatment in the solvent control group−average tumor volume at the beginning of treatment in the solvent control group)]×100%.

[5] = system: KRAS G12C mutation; details: reported in Cell, 2018, 172, 578-589; cited from earlier work
[6] = reported in Cell, 2018, 172, 578-589; cited from earlier work
[7] = system: pancreatic cancer MIA-Paca2 cell; details: reported in Cell, 2018, 172, 578-589; cited from earlier work
[8] = system: NCI-H358 human non-small cell lung cancer cells with KRAS G12C mutation; test: Cell experiment: anti-proliferative activity, CellTiter-Glo, NCI-H358; type: cell-based; details: Homo sapiens, NCI-H358, 120 h, 5 days culture
Procedure: (§2) This experiment is intended to verify that the compounds of the present invention have an inhibitory effect on the proliferation of NCI-H358 human non-small cell lung cancer cells with KRAS G12C mutation, MIA PaCa2 human pancreatic cancer cells with KRAS G12C mutation and wild-type A375 human malignant melanoma cells.
(§3) 40 μl of phosphate buffer was added to the peripheral wells of three 384-well microplates respectively, and 40 μl of cell suspension to be tested was added to the other wells of each plate respectively (plate 1: NCI-H358 cell suspension containing 500 NCI-H358 cells; plate 2: MIAPaCa2 cell suspension containing 300 MIAPaCa2 cells; plate 3: A375 cell suspension containing 300 A375 cells). The three cell plates were then placed in a carbon dioxide incubator and incubated overnight. Echo was used to perform a 3-fold gradient dilution of the compounds to be tested, and each compound was diluted with 10 concentration gradients (diluted from 50 μM to 0.003 μM), 100 nl of which was respectively added to the corresponding wells of the cell plates; after dosing, 40 μL of phosphate buffer was added to each well of rows A and P and columns 1 and 24, and then the cell plates were put back to the carbon dioxide incubator for culturing for 5 days. 20 μl of Promega CellTiter-Glo reagent per well was added to the cell plates, which was shaken at room temperature for 10 minutes in the dark to stabilize the luminescence signal. A PerkinElmer Envision multi-label analyzer was used for reading.
(§4) Data analysis: IC50 results were analyzed by GraphPad Prism 5.0 software […].

[9] = system: wild-type A375 human malignant melanoma cells; test: Cell experiment: anti-proliferative activity, CellTiter-Glo, A375; type: cell-based; details: Homo sapiens, A-375, 120 h, 5 days culture
Procedure: as §2, §3, §4

[10] = system: MIA PaCa2 human pancreatic cancer cells with KRAS G12C mutation; test: Cell experiment: anti-proliferative activity, CellTiter-Glo, MIA PaCa2; type: cell-based; details: Homo sapiens, MIA PaCa-2, 120 h, 5 days culture
Procedure: as §2, §3, §4

[11] = Liver microsome stability test, human; type: in vitro ADME; details: human liver microsomes, 0.5 mg protein/mL; read-out: Human T1/2
Procedure: (§5) To test the metabolic stability of the test article in mice, rats and human liver microsomes.
(§6) 1. 10 μL of the test or control article working solution was added to all plates (T0, T5, T10, T20, T30, T60, NCF60).
(§7) 2. Liver microsome solution was dispensed into a 96-well plate at 680 μL/well, and addition was performed on each plate at 80 μL/well, and the above-mentioned incubation plate was placed at 37° C. for pre-incubation for about 10 minutes.
(§8) 4. After the pre-incubation, the NADPH regeneration system working solution was dispensed into the 96-well plate at 90 μL/well, and addition was performed on each plate at 10 μL/well to start the reaction.
(§9) 5. Incubation was performed for an appropriate time (e.g., 5, 10, 20, 30 and 60 minutes).
(§10) 6. 300 μL of the stopping solution (refrigerated at 4° C., containing 100 ng/mL of tolbutamide and 100 ng/mL of labetalol) was respectively added to each sample well.
(§11) T1/2 and Clint(mic) were calculated by the following formula.
(§12) Ct is the concentration at time t, with t being the incubation time; C0 is the concentration at 0; Ke is the elimination rate constant; Clint(mic) is the intrinsic clearance rate of liver microsomes; and Clint(liver) is the hepatic intrinsic clearance rate. CLint(mic)=0.693/half-life/mg microsomal protein per mL (microsome concentration during incubation) CLint(liver)=CLint(mic)×mg microsomal protein/g liver weight×ratio of liver weight to body weight

[12] = Liver microsome stability test, rat; type: in vitro ADME; details: rat liver microsomes, 0.5 mg protein/mL; read-out: rat T1/2
Procedure: as §5, §6, §7, §8, §9, §10, §11, §12

[13] = Liver microsome stability test, mouse; type: in vitro ADME; details: mouse liver microsomes, 0.5 mg protein/mL; read-out: mouse T1/2
Procedure: as §5, §6, §7, §8, §9, §10, §11, §12

[14] = system: human pancreatic cancer MIA-PaCa2 cell; test: In vivo drug efficacy test (1): subcutaneous xenograft tumor model; design: species or system BALB/c nude mice; details: for TGI: day 20
Procedure: To evaluate the in vivo efficacy of the test compounds in a subcutaneous xenograft tumor model of human pancreatic cancer MIA-PaCa2 cell.
BALB/c nude mice, female, 6-8 weeks old, weighing approximately 18-22 grams. Each mouse was subcutaneously inoculated with 0.2 mL (1×10^7) of MIA-PaCa2 cells (plus matrigel, with the volume ratio being 1:1) on the right back. The administration was performed when the average tumor volume reached about 169 cubic millimeters. The tumor volume was measured twice a week, with the volume measured in cubic millimeters, and calculated by the following formula: V=0.5 a×b^2, where a and b were the long and short diameters of the tumor, respectively. The tumor suppressive effect of the compounds was evaluated by TGI (%). TGI (%) reflects the tumor growth inhibition rate. Calculation of TGI (%): TGI (%)=[(1−(average tumor volume at the end of administration in a treatment group−average tumor volume at the beginning of administration in the treatment group))/(average tumor volume at the end of treatment in the solvent control group−average tumor volume at the beginning of treatment in the solvent control group)]×100%.

C=CC(=O)N1CCN(c2ncnc3c(F)c(-c4c(O)cccc4F)c(Cl)cc23)CC1 [ARS-1620, reference compound]
AUC ([1]; IV 3 mg/kg): 3.21 µM·h | clearance ([1]; IV 3 mg/kg, read-out: Cl (clearance rate)): 36.3 mL/min/kg | half-life ([1]; IV 3 mg/kg, read-out: T1/2 (half-life) (converted)): 27.7 min | Vd ([1]; IV 3 mg/kg, read-out: Vd (volume of distribution)): 1.08 L/kg | Cmax ([1]; PO 10 mg/kg): 1240 nM | Tmax ([1]; PO 10 mg/kg): 20 min | AUC ([1]; PO 10 mg/kg): 2.32 µM·h | bioavailability ([1]; PO 10 mg/kg, read-out: F (bioavailability)): 22% | Tumor volume (day 20) [2]: 216 mm^3 | TGI ([2]; day 20): 90.82% | Tumor volume (day 14) [3]: 907 mm^3 | TGI ([3]; day 14): 50.36% | Tumor volume (day 27) [4]: 492 mm^3 | TGI ([4]; day 27): 51.78% | cellular anti-proliferative activity at the cellular level [5]: nM-level | metabolic stability [6]: good metabolic stability | tumor growth in subcutaneous xenograft tumor model [7]: effectively inhibit tumor growth

C=CC(=O)N1CCN(c2ncnc3c(=O)n(-c4c(O)cccc4F)c(C(F)(F)F)cc23)CC1 [Example 2]
pIC50 [8]: 5.27 | pIC50 [9]: < 4.30 | pIC50 [10]: 5.19 | half-life [11]: > 145 min | half-life [12]: > 145 min | half-life [13]: > 145 min | Tumor volume (day 20) ([14]; 50 mg/kg orally daily): 457 ± 94 mm^3 | TGI ([14]; 50 mg/kg orally daily): 35% | Tumor volume (day 20) ([14]; 200 mg/kg orally daily): 307 ± 61 mm^3 | TGI ([14]; 200 mg/kg orally daily): 69%

From patent US11453667B2, “Pyridone-pyrimidine derivative acting as KRASG12C mutein inhibitor” (MEDSHINE DISCOVERY INC., priority 2018, dated 2022)
